From US20250230147A1, “LACTAMS AS CBL-B INHIBITORS” (Genentech, Inc., priority 2021, published 2025)

Key:
c-Cbl = c-Cbl (Homo sapiens (Human), UniProt P22681); experiment: C-Cbl LCK Ub TR-FRET assay (c-cbl Lck HTRF); assay type: biochemical; conditions: for (fold-selectivity): C-cbl Lck HTRF IC50 relative to Cbl-b Lck HTRF IC50
Protocol: 6 μL of detection mixture was added to all wells and briefly centrifuged before incubating for 20 min at room temperature. […] IC50 was generated using no LCK as the low control and DMSO as the high control.

Cbl-b = Cbl-b (Homo sapiens (Human), UniProt Q13191); experiment: Cbl-b LCK Ub TR-FRET assay (Cbl-b Lck HTRF); assay type: biochemical
Chain of Cbl-b (Q13191 40-426): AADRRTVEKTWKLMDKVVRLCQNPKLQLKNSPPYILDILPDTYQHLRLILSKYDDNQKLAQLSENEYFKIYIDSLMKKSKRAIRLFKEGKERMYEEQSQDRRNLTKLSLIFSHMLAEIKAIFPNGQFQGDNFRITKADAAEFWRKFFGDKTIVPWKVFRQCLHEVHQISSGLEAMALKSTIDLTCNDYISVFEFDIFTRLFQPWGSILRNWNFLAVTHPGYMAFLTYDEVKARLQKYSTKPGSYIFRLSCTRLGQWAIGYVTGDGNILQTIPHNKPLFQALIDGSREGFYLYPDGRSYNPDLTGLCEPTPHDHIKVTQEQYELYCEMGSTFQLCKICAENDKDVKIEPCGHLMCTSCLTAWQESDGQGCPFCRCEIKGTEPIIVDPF
Protocol: Compounds were 3-fold serially diluted in DMSO in a 384-well polypropylene plate (#P-05525-BC; Labcyte) to generate a source plate with 10 concentrations of each compound, top concentration=2 mM. 80 nL of DMSO or compounds were transferred to each well of a black 384-well ProxiPlate (#6008260; PerkinElmer) using a Labcyte Echo. 1×assay buffer (50 mM HEPES pH7.0, 100 mM NaCl, 0.01% BSA, 0.01% Triton-X100, 1 mM DTT), 2×enzyme solution (16 nM Biotin-Cbl-b or 12 nM Biotin-c-Cbl in 1× assay buffer), 2×kinase mixture (120 nM His-LCK, 1 mM ATP, 10 mM MgCl2 in assay buffer) and 2.33×detection mixture (4.66×solution 1: 163 nM Anti-HA-D2 antibody (#610HADAB; PerkinElmer), 27.96 nM Streptavidin-EU (#AD0062; PerkinElmer), 1.398 mM EDTA in 1×assay buffer+4.66×solution 2: 2.796 μM UBE2D2/Methylated-HA-Ubiquitin thioester adduct (BostonBiochem) in 1×assay buffer) were prepared. 4 μL of 2× enzyme solution was added to each well containing compound, briefly centrifuged to mix, and incubated for 60 min at room temperature. 4 μL of 2× kinase mixture was added, briefly centrifuged to mix, and incubated for 90 min. at room temperature. 6 μL of detection mixture was added to all wells and briefly centrifuged before incubating for 20 min at room temperature. Plates were read for TR-FRET using an Envision at excitation 340 nm, emission at 615 and 665 nm, 4 flashes per well. IC50 was generated using no LCK as the low control and DMSO as the high control.
Cbl-b Lck HTRF data in Table 7 is measured according to Example 76 herein; C-cbl Lck HTRF data is measured according to Example 76 herein.

Chain of c-Cbl (P22681 47-435): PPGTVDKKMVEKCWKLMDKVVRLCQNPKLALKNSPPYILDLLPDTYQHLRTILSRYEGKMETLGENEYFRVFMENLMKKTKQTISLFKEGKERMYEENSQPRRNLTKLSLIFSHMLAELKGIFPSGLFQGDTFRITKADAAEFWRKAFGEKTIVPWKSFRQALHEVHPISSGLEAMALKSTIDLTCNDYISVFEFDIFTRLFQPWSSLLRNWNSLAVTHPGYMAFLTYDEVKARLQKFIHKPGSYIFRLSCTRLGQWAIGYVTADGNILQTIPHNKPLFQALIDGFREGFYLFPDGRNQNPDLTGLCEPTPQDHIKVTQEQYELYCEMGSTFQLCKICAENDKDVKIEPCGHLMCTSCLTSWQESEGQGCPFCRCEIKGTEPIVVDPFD

Structure (SMILES)	IC50 (c-Cbl)	(fold-selectivity) (c-Cbl)	IC50 (Cbl-b)
CC(C)[C@H]1CN(C)CCN1Cc1cc2c(c(C(F)(F)F)c1)CN(c1cc(C3([C@H](F)c4nncn4C)CCC3)cc(NCCO)n1)C2=O [Compound 234, 2-(4-(1-((S)-fluoro(4-methyl-4H-1,2,4-triazol-3-yl)methyl)cyclobutyl)-6-((2-hydroxyethyl)amino)pyridin-2-yl)-6-(((S)-2-isopropyl-4-methylpiperazin-1-yl)methyl)-4-(trifluoromethyl)isoindolin-1-one]	8.5 nM	(1.2x)	7.2 nM
Cn1cnnc1CC1(c2cc(N[C@H]3CC[C@@H](N)CC3)nc(N3Cc4c(cc(CNC5(C)CCC5)cc4C(F)(F)F)C3=O)c2)CCC1 [Compound 306, 2-(6-(((1s,4s)-4-aminocyclohexyl)amino)-4-(1-((4-methyl-4H-1,2,4-triazol-3-yl)methyl)cyclobutyl)pyridin-2-yl)-6-(((1-methylcyclobutyl)amino)methyl)-4-(trifluoromethyl)isoindolin-1-one]	89 nM	(1.2x)	76 nM
Cn1cnnc1CC1(c2cc(NC3CCCC3)cc(N3Cc4c(cc(CNC5(C)CCC5)cc4C(F)(F)F)C3=O)c2)COC1 [Compound 480, 2-(3-(cyclopentylamino)-5-(3-((4-methyl-4H-1,2,4-triazol-3-yl)methyl)oxetan-3-yl)phenyl)-6-(((1-methylcyclobutyl)amino)methyl)-4-(trifluoromethyl)isoindolin-1-one]	180 nM	(2.8x)	59 nM
Cn1cnnc1[C@H](F)C1(c2cccc(N3Cc4c(cc(Oc5cn[nH]c5)cc4C(F)(F)F)C3=O)c2)COC1 [Compound 116, (R)-6-((1H-pyrazol-4-yl)oxy)-2-(3-(3-(fluoro(4-methyl-4H-1,2,4-triazol-3-yl)methyl)oxetan-3-yl)phenyl)-4-(trifluoromethyl)isoindolin-1-one]	330 nM	1.1x	310 nM

Other lines, results leading:

IC50 (c-Cbl)	(fold-selectivity) (c-Cbl)	IC50 (Cbl-b)	Structure (SMILES)
24 nM	1.2x	20 nM	CC(C)[C@@H]1CN(Cc2cc3c(c(C(F)(F)F)c2)CN(c2cccc(C4([C@@H](F)c5nncn5C)COC4)c2)C3=O)CCN1 [Compound 92]
370 nM	1.8x	210 nM	Cn1cnnc1[C@@H](F)C1(c2cccc(N3Cc4c(cc(CN5CC(C)(CF)C5)cc4C(F)(F)F)C3=O)c2)COC1 [Compound 77, (S)-2-(3-(3-(fluoro(4-methyl-4H-1,2,4-triazol-3-yl)methyl)oxetan-3-yl)phenyl)-6-((3-(fluoromethyl)-3-methylazetidin-1-yl)methyl)-4-(trifluoromethyl)isoindolin-1-one]
14 nM	0.85x	17 nM	Cn1cnnc1CC1(c2cccc(N3Cc4c(cc(CN5CC(C)(O)C5)cc4C(F)(F)F)C3=O)c2)CC(F)(F)C1 [Compound 17, 2-(3-(3,3-difluoro-1-((4-methyl-4H-1,2,4-triazol-3-yl)methyl)cyclo-butyl)phenyl)-6-((3-hydroxy-3-methylazetidin-1-yl)methyl)-4-(trifluoromethyl)isoindolin-1-one]
150 nM	(1.3x)	120 nM	Cn1cnnc1[C@@H](F)C1(c2cccc(N3Cc4c(cc(CN5CCCC5)cc4C(F)(F)F)C3=O)c2)CC(F)(F)C1 [Compound 396, (S)-2-(3-(3,3-difluoro-1-(fluoro(4-methyl-4H-1,2,4-triazol-3-yl)methyl)cyclobutyl)phenyl)-6-(pyrrolidin-1-ylmethyl)-4-(trifluoromethyl)isoindolin-1-one]
360 nM	2.5x	140 nM	C=CC1(O)CN(Cc2cc3c(c(C(F)(F)F)c2)CN(c2cccc(C4([C@H](F)c5nncn5C)COC4)c2)C3=O)C1 [Compound 170, (S)-2-(3-(3-(fluoro(4-methyl-4H-1,2,4-triazol-3-yl)methyl)oxetan-3-yl)phenyl)-6-((3-hydroxy-3-vinylazetidin-1-yl)methyl)-4-(trifluoromethyl)isoindolin-1-one]
